Experimental data taken from a melting point compilation (Tetko et al.; mined from patent text by program, amines drawn as free bases though some values may be those of a salt).
Residues, ends and D or L forms follow the SMILES beside them.

| melting point [°C] | SMILES |
| --- | --- |
| 78 to 79 | COc1ccc(C(=O)c2cnoc2C)cc1 |
| 109 to 110 | CCCc1ccc(-c2ncc(C#N)c(Cl)n2)cc1 |
| 103 to 105 | Cc1cc(C)c2c(c1)Cc1ccccc1S2(=O)=O |
| 238 to 249 | Cn1c(-c2ccc(-c3ccccn3)cc2)c(C(=O)N2CCC(OCC(=O)O)CC2)c(=O)n1-c1ccc(C(=N)N)cc1 |
| 145 to 153 | COc1ccc(NN=C(Sc2ccc(S(C)(=O)=O)cc2)C(C)=O)cc1 |
| 204 to 205 | COc1ccc2c(C(=O)O)cccc2c1SC(F)(F)F |
| 99 to 101 | COc1ccc(-c2c(C=O)ccc3cc(OC)ccc23)cc1 |
| 117 to 118 | COC1c2ccccc2CSc2ccc(C#N)cc21 (configuration not stated) |
| 260 | CNC(=O)NS(=O)(=O)c1cc2c(cc1OC)OCC(NC(=O)c1cc(F)ccc1OC)C2 (configuration not stated) |
| 187 | CCOC(=O)c1cn(C)c2cnc3cc(F)c(N4CC5(C)CC4CC(C)(C)C5)cc3c2c1=O (configuration not stated) |
| 179 to 182 | Cc1cc(N2N=C(c3ccc([N+](=O)[O-])cc3)c3cc4c(cc3CC2C)OCO4)on1 (configuration not stated) |
| 181 to 182 | NS(=O)(=O)c1ccc(NN=Cc2ccc(Cl)cc2)cc1 |
| 185 | O=C(COc1cc(-c2ccccn2)nc2ccccc12)N1CCOCC1 |
| 85 to 87 | C=Cc1cn(-c2c(Cl)cc(C(F)(F)F)cc2Cl)c2ccccc12 |
| 54 to 55 | CN(C)C(=O)CCCOC(=O)C(OCc1ccc(-c2ccc(Cl)cc2)cc1)(C(F)(F)F)C(F)(F)F |
| 152 to 153 | O=C(O)c1cccc([N+](=O)[O-])c1SCc1ccccc1 |
| 159 to 161 | CC(OC1(c2ccccc2F)NOc2c(Cl)cccc21)C(=O)O (configuration not stated) |
| 266 to 267 | CC1(C)CCc2c(N3CCOCC3)nc3sc4c(NCc5cccc6ccccc56)ncnc4c3c2C1 |
| 73 to 75 | c1ccc(C(=C2CCN(CCN3CCNCC3)CC2)c2ccccc2)cc1 |
| 182 to 185 | CC(C)N(C[C@@H](O)[C@@H](C(=O)[C@H](CC(N)=O)NC(=O)c1ccccc1)C(N)c1ccccc1)NC(=O)OC(C)(C)C (some centres not stated) |
| 347 to 349 | CC(C)NC(=O)c1c[nH]c2ncc(-c3nn(C)c4cc(Cl)cc(F)c34)nc12 |
| 187 to 188 | CNC(=O)C(NC(=O)C(CC(=O)O)N1C=CN(c2ccc(-c3ccccc3)cc2)C1)C(C)(C)C (mixture of isomers) |
| 66 to 67 | C=CCc1c(C=O)cccc1OCc1ccccc1 |

| melting point [°C] | SMILES |
| --- | --- |
| 77 to 78 | CCOC(=O)[C@H]1CCc2ccc(O)cc2O1 |
| 260 to 262 | Nc1nc2cc(-c3cccnc3)ccc2c2c1nc(CO)n2CC1CCOCC1 |
| 169 to 170 | O=C(O)[C@H](Cc1ccc(F)cc1)[C@@H](O)c1ccc(F)cc1 (racemic) |
| 101 to 105 | CCSC(=S)SC1NC(=O)C1C(C)OC(C)=O (mixture of isomers) |
| 170 | Nc1n[nH]c2c(F)cccc12 |
| 157 | CCC(=O)Cc1ccc(C(=O)Nc2ccc3cc(CN4CCCC4)cnc3c2C)cc1 |
| 102 | COCCOc1ccc(CCCNS(=O)(=O)CCCc2ccccc2)c(Oc2ncc(C(F)(F)F)cc2Cl)c1 |
| 176 to 178 | CS(=O)(=O)Nc1ccc(OCCCN2C(=O)c3ccccc3C2=O)cc1 |
| 189 to 190 | CCC(C(=O)C(C)C(O)C(C)CCc1c(NC(C)=O)cc(C)c(O)c1C(=O)O)C1OC(CC)(C2CCC(O)(CC)C(C)O2)CC1C (configuration not stated) |
| 277 | O=C(NC1CCC1)c1cc(Nc2nc(Cl)nc3ccoc23)[nH]n1 |
| 158 | CCOC(=O)N1CCc2nc3ccccc3c(CO)c2CC1 |
| 67 to 69 | COCCCN(C(=O)N(CCCl)N=O)C1(O)COC(OCC(C)C)C(O)C1O (configuration not stated) |
| > 300 | O=C(O)c1cn(-c2ccc(F)cc2)c2c(F)c(N3Cc4ccc(Br)cc4C3)c(F)cc2c1=O |
| 211 to 212 | O=C(c1cc(-c2ccc(F)cc2)c(-c2ccc(F)cc2)[nH]1)C(F)(F)F |
| 51 to 57 | CCOC(=O)C1=C(CO)NC(C)=C(C(=O)OCc2ccccc2)C1c1ccccc1[N+](=O)[O-] (configuration not stated) |
| 182 | OC(COc1ccc(Cl)cc1Cl)(Cn1cnnc1)Cn1cncn1 (configuration not stated) |
| 199 | O=C1CCC2=C(CCc3cccc(F)c32)N1 |
| 90 to 94 | Cn1c([N+](=O)[O-])cnc1C=O |
| 130 to 131 | Cc1cccc2c1CCc1ccccc1C2(O)CCCN=Cc1ccccc1 (configuration not stated) |
| 208 to 209 | CC(C)(C)C(NC(=O)c1ccc(Cl)cc1)NC(=NC#N)Nc1ccccc1F (configuration not stated) |
| 134 to 135 | CC(C)(C)OC(=O)Nc1cc([N+](=O)[O-])c2ncccc2c1 |
| 169 to 172 | NC(=O)CC(NC(=O)C(N)CO)C(=O)NC(Cc1ccccc1)C(N)=O (stereo not drawn) (H-Ser-Asn-Phe-NH2; configuration not given here) |
| 59 to 61 | CCC(=O)NCC1CC1c1cccc2nc(C)sc12 (configuration not stated) |

| melting point [°C] | SMILES |
| --- | --- |
| 189 to 190 | Cc1c2c(c(C(C)c3ccc(C(C)C)cc3)c(C)c1NC(=O)CC(C)(C)C)OCC2 (configuration not stated) |
| 88 to 90 | COc1cccc2cc(-c3ccc(OCCN4CCCC4)cc3)sc12 |
| 150 | CCOCc1nc(C(C)(C)O)c(C(=O)O)n1Cc1ccc(-c2ccccc2-c2nnn[nH]2)cc1 |
| 127 to 129 | Cc1cc(CC(=O)O)cc(Cc2nc3c(F)c(F)cc(F)c3s2)c1 |
| 227 to 229 | CC(C)(CO)c1ccc(C(=O)Nc2cn3cc(C(F)(F)F)ccc3n2)cc1 |
| 138 to 140 | CN(C1CCCc2ccc([N+](=O)[O-])cc21)S(C)(=O)=O (configuration not stated) |
| 100 to 101 | Cn1nc(C(F)(F)F)cc1N |
| 133 to 134 | COc1ccccc1COc1cc2c(cc1OC)C(=O)N(Cc1ccccc1OC)CC2 |
| 176 to 193 | CC=C1CCC2C3CCC4CC(O)C(OCC)CC4(C)C3C(=NO)CC12C (configuration not stated) |
| 98 to 100 | COc1nn(CC(=O)C2CC2)c(=O)s1 |
| 149 to 150 | Cn1c(=O)n(Cc2ccccc2)c(=O)c2cc(I)ccc21 |
| 61 to 63 | C=C(C)c1cc(CC)n(-c2ccc([N+](=O)[O-])cc2)n1 |
| 193 to 196 | CC(c1oc2ccc(F)cc2c(=O)c1-c1cccc(F)c1)n1nc(-c2cccc(O)c2)c2c(N)ncnc21 (configuration not stated) |
| 71 to 73 | Cc1ccccc1-c1ccc(Br)cc1C=O |
| 222 | COc1ccc(N2CCN(c3ccc(NC(=S)NC(C)(C)CO)cc3)CC2)cc1 |
| > 200 | O=S(=O)(c1ccccc1)c1c(-c2ccc(Cl)cc2)[nH]c(Br)c1Br |
| 155 to 160 | Cn1c(C(=O)NCCCO)c2ccc(Cl)cc2c1-c1ccccc1 |
| 146 to 147 | CCN1CC(=O)c2ccc3ccccc3c2S1(=O)=O |
| 52 to 54 | CCCCCCCCCCCCOCC(C=CC(=O)N(C)C)(C=CC(=O)N(C)C)COCCCCCCCCCCCC |
| 117 to 118 | CCOC(=O)Cc1c(-c2ccccc2)n[nH]c1-c1ccccc1 |
| 85 to 87 | CCOC(=O)C=Cc1cccnc1OCc1ccc(OCc2nc(-c3ccco3)oc2C)c(OC)c1 |
| 213 to 214 | Cc1c(F)c(Oc2cccnc2)nc(Oc2cccc(C(=N)N)c2)c1F |
| 125 | CC(C)(C)OC(=O)N1CC=C(c2ccnc(C(=O)N(O)Cc3ccccc3)c2)CC1 |

| melting point [°C] | SMILES |
| --- | --- |
| 260 to 265 | Nc1nc(N)c(-c2ccc(Cl)cc2Cl)c(C=NO)n1 |
| 223 to 226 | O=C(O)COc1cccc2c1CCc1sc(Sc3ccc([N+](=O)[O-])cc3[N+](=O)[O-])nc1-2 |
| 87 | CCOC(=O)CC(=O)Nc1c(C(=O)OC)cccc1C(F)(F)F |
| 65 to 68 | COC(=O)c1ccc(NC(=O)C(CC2CCCC2)c2ccc(N)cc2)nc1 (configuration not stated) |
| 142 to 143 | CCCCCS(=O)(=O)NC(=O)/C=C/c1ccc(OCCOC)cc1Nc1ccc(C(F)(F)F)cc1 |
| 124 | Cc1ccc(S(=O)(=O)N2C[C@H]3C[C@@H]2CN3Cc2ccccc2)cc1 |
| 144 to 149 | CCOC(=O)c1cnc(-c2ccccc2OCC)[nH]c1=O |
| 226 to 228 | Cc1cc(-c2nncc3c(-c4ccco4)c(OCc4ncnn4C)nn23)no1 |
| 123 to 135 | N#Cc1c(N2CCN(C(=O)C3CCCO3)CC2)c2ccccc2n(Cc2ccc(F)cc2)c1=O (configuration not stated) |
| 215 to 217 | CC(=O)OC1CCc2c(Nc3ccc(C#N)cc3)ncnc21 (configuration not stated) |
| 210 to 212 | CCCCc1oc2ccccc2c1C(=O)Nc1ccc(-c2ccc(OCc3nnn[nH]3)cc2)cc1 |
| 105 | CCN(CC)C(=O)c1cn(-c2cccc(Cl)c2)cn1 |
| 155 to 160 | CC1CN(C)CCC1Oc1cccc(NC(=O)c2ccc(F)cc2Cl)n1 (configuration not stated) |
| 135 to 136 | COc1ccc(C2CCN(C(=O)C(=O)NO)CC2)cc1C=C1CCCCCC1 |
| 135 to 136 | CCOc1cc(OCc2ccc(OCc3nc(-c4ccccc4)oc3C)cc2)ccc1CCC(=O)O |
| 142 to 143 | CC(=O)NCCCC(=O)N1CCCC2=C1CCc1cc(Cl)ccc12 |
| 244 to 247 | Cc1cc(C#N)cc(CNc2c(NC(C)C(C)(C)C)c(=O)c2=O)c1 (configuration not stated) |
| 192 to 195 | COc1c(C(C)(C)C)cc(C(=O)O)cc1C(C)(C)C |
| 132 to 134 | CC(C)N(C(=O)COc1ccc(-c2ccc(C(=O)O)cc2C(F)(F)F)cc1)C(C)C |
| 282 | NS(=O)(=O)c1ccc(-c2cc(-c3nc(-c4ccc(F)cc4)cc(C(F)(F)F)n3)ccn2)s1 |
| 73 to 74.5 | CC1(C)COC(c2cc(I)cc(C(F)(F)F)c2)=N1 |

| SMILES | melting point [°C] |
| --- | --- |
| Clc1cc(Cl)c(CBr)c(Cl)c1 | 51 to 52 |
| N#Cc1ccc(C(=O)N2CCC3(CC2)OCCO3)cn1 | 133 to 135 |
| C#CCNC(=O)c1ncn2c1[C@@H]1CCCN1Cc1c(Cl)cccc1-2 | 233 to 235 |
| Clc1ccc(C2NN=C(c3cccnc3)S2)cc1 (configuration not stated) | 108 to 110 |
| CNC(=O)N1N=C(c2ccc([N+](=O)[O-])cc2)c2cc(Cl)ccc2CC1C (configuration not stated) | 190 to 192 |
| O=C(OCc1cccc(Cl)c1)c1ncn2c1[C@@H]1CCCN1C(=O)c1c(Cl)cccc1-2 | 114 to 116 |
| N#CCNCCc1c[nH]c2ccc(Cl)cc12 | 80 |
